# Reference: PubChem BioAssay (NCI)
#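 The compound was tested at five concentrations on cells cultured in 96-well plates, with a 48-hour exposure period. TGI is the concentration that stops growth completely.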
# How the values were obtained:
# Assay in all cases: NCI tumour cell line growth inhibition, 48 h
# UACC-257 melanoma = test system: UACC-257 melanoma
# DLD-1 colon = test system: DLD-1 colon
# OVCAR-3 ovarian = test system: OVCAR-3 ovarian
# LXFL 529 NSCLC = test system: LXFL 529 NSCLC
# SNB-78 CNS = test system: SNB-78 CNS
# CAKI-1 renal = test system: CAKI-1 renal
# SK-MEL-5 melanoma = test system: SK-MEL-5 melanoma
# COLO 205 colon = test system: COLO 205 colon
# NCI-H226 lung = test system: NCI-H226 lung
# HOP-62 NSCLC = test system: HOP-62 NSCLC
# EKVX NSCLC = test system: EKVX NSCLC
# DMS 114 small cell lung = test system: DMS 114 small cell lung
# SK-OV-3 ovarian = test system: SK-OV-3 ovarian
# HT29 colon = test system: HT29 colon
# OVCAR-5 ovarian = test system: OVCAR-5 ovarian
# UO-31 renal = test system: UO-31 renal
# LOX IMVI melanoma = test system: LOX IMVI melanoma
# SF-268 CNS = test system: SF-268 CNS
# A498 renal = test system: A498 renal
# MALME-3M melanoma = test system: MALME-3M melanoma
# SK-MEL-2 melanoma = test system: SK-MEL-2 melanoma
# HOP-92 NSCLC = test system: HOP-92 NSCLC
# SF-539 CNS = test system: SF-539 CNS
# KM20L2 colon = test system: KM20L2 colon
# RXF-631 renal = test system: RXF-631 renal
# M19-MEL melanoma = test system: M19-MEL melanoma
# TK-10 renal = test system: TK-10 renal
# 786-0 renal = test system: 786-0 renal
# SK-MEL-28 melanoma = test system: SK-MEL-28 melanoma
# NCI-H522 lung = test system: NCI-H522 lung
# NCI-H460 lung = test system: NCI-H460 lung
# RXF 393 renal = test system: RXF 393 renal
# A549 NSCLC = test system: A549 NSCLC
# HL-60(TB) leukemia = test system: HL-60(TB) leukemia
# SN12C renal = test system: SN12C renal
# M14 melanoma = test system: M14 melanoma
# SW-620 colon = test system: SW-620 colon
# SNB-75 CNS = test system: SNB-75 CNS
# HCT-15 colon = test system: HCT-15 colon
# HOP-18 NSCLC = test system: HOP-18 NSCLC
# HCT-116 colon = test system: HCT-116 colon
# U251 CNS = test system: U251 CNS
# MOLT-4 leukemia = test system: MOLT-4 leukemia
# OVCAR-4 ovarian = test system: OVCAR-4 ovarian
# UACC-62 melanoma = test system: UACC-62 melanoma
# HCC-2998 colon = test system: HCC-2998 colon
# XF 498 CNS = test system: XF 498 CNS
# CCRF-CEM leukemia = test system: CCRF-CEM leukemia
# DMS 273 small cell lung = test system: DMS 273 small cell lung
# SNB-19 CNS = test system: SNB-19 CNS
# IGROV1 ovarian = test system: IGROV1 ovarian
# SF-295 CNS = test system: SF-295 CNS
# ACHN renal = test system: ACHN renal
# KM12 colon = test system: KM12 colon
# SR leukemia = test system: SR leukemia
# NCI-H23 lung = test system: NCI-H23 lung
# RPMI-8226 leukemia = test system: RPMI-8226 leukemia
# OVCAR-8 ovarian = test system: OVCAR-8 ovarian
compound,measurement,setting,value
COC(=O)C(CCCCCCCC(C(=O)OC)c1nc2n(c1O)C(=N)N=N2)c1nc2n(c1O)C(=N)N=N2 (stereo not drawn),TGI,UACC-257 melanoma,> 100 µM
same,TGI,DLD-1 colon,> 100 µM
same,TGI,OVCAR-3 ovarian,> 100 µM
same,TGI,LXFL 529 NSCLC,> 100 µM
same,TGI,SNB-78 CNS,> 100 µM
same,TGI,CAKI-1 renal,> 100 µM
same,TGI,SK-MEL-5 melanoma,> 100 µM
same,TGI,COLO 205 colon,> 100 µM
same,TGI,NCI-H226 lung,> 100 µM
same,TGI,HOP-62 NSCLC,> 100 µM
same,TGI,EKVX NSCLC,> 100 µM
same,TGI,DMS 114 small cell lung,> 100 µM
same,TGI,SK-OV-3 ovarian,> 100 µM
same,TGI,HT29 colon,> 100 µM
same,TGI,OVCAR-5 ovarian,> 100 µM
same,TGI,UO-31 renal,> 100 µM
same,TGI,LOX IMVI melanoma,> 100 µM
same,TGI,SF-268 CNS,> 100 µM
same,TGI,A498 renal,> 100 µM
same,TGI,MALME-3M melanoma,> 100 µM
same,TGI,SK-MEL-2 melanoma,> 100 µM
same,TGI,HOP-92 NSCLC,> 100 µM
same,TGI,SF-539 CNS,> 100 µM
same,TGI,KM20L2 colon,> 100 µM
same,TGI,RXF-631 renal,> 100 µM
same,TGI,M19-MEL melanoma,> 68.3 µM
same,TGI,TK-10 renal,> 100 µM
same,TGI,786-0 renal,> 100 µM
same,TGI,SK-MEL-28 melanoma,> 100 µM
same,TGI,NCI-H522 lung,> 100 µM
same,TGI,NCI-H460 lung,> 100 µM
same,TGI,RXF 393 renal,> 100 µM
same,TGI,A549 NSCLC,> 100 µM
same,TGI,HL-60(TB) leukemia,> 100 µM
same,TGI,SN12C renal,> 100 µM
same,TGI,M14 melanoma,> 100 µM
same,TGI,SW-620 colon,> 100 µM
same,TGI,SNB-75 CNS,> 85.6 µM
same,TGI,HCT-15 colon,> 100 µM
same,TGI,HOP-18 NSCLC,> 100 µM
same,TGI,HCT-116 colon,> 100 µM
same,TGI,U251 CNS,> 100 µM
same,TGI,MOLT-4 leukemia,> 100 µM
same,TGI,OVCAR-4 ovarian,> 100 µM
same,TGI,UACC-62 melanoma,> 100 µM
same,TGI,HCC-2998 colon,> 100 µM
same,TGI,XF 498 CNS,> 100 µM
same,TGI,CCRF-CEM leukemia,> 100 µM
same,TGI,DMS 273 small cell lung,> 100 µM
same,TGI,SNB-19 CNS,> 100 µM
same,TGI,IGROV1 ovarian,> 100 µM
same,TGI,SF-295 CNS,> 100 µM
same,TGI,ACHN renal,> 100 µM
same,TGI,KM12 colon,> 100 µM
same,TGI,SR leukemia,> 100 µM
same,TGI,NCI-H23 lung,> 100 µM
same,TGI,RPMI-8226 leukemia,> 100 µM
same,TGI,OVCAR-8 ovarian,> 100 µM
